Measurements taken from US20210145842A1, “NEW THERAPEUTIC USES” (NOVARTIS AG, priority 2018, published 2021).
Where “and” joins values, the source holds several entries; their conditions need not be identical. Identical values can stand only once. Like-named read-outs stand apart in the source and are kept apart here.

What was measured:
[1] = tested on: patients; settings: pooled analysis; cited from earlier work
[2] = tested on: patients with NSCLC; settings: in vivo; cited from earlier work
[3] = tested on: patients with metastatic NSCLC containing EGFR ex19del or L858R substitution mutations; settings: EURTAC; erlotinib 150 mg once daily; cited from earlier work
[4] = tested on: patients; settings: human, in vivo; cited from earlier work
[5] = Distribution of nazartinib to the brain in a preclinical model; format: in vivo
[6] = tested on: patients with EGFR T790M-mutant NSCLC who were third-generation EGFR TKI naïve
Description: Patients were screened for eligibility across six subgroups according to EGFR mutation status and prior therapy, and treated with nazartinib 75-350 mg (capsule or tablet formulation) orally, once daily (QD), on a continuous 28-day dosing schedule. The primary objective of the Phase I part was to determine the maximum tolerated dose and/or recommended Phase II dose (RP2D).
This was a Phase I/II, multicenter, open-label study of nazartinib in patients with locally advanced/metastatic EGFR-mutant NSCLC.
Nazartinib was administered orally, once daily (QD), on a continuous, 28-day cycle dosing schedule. The starting dose for the Phase I part was 75 mg in capsule formulation. Nazartinib in tablet formulation was also introduced during Phase I. Patients were treated across the following QD dose groups: 75 mg, 100 mg, 150 mg, 200 mg, 225 mg, 300 mg, and 350 mg. Initial cohorts consisted of 1-6 patients.
Patients treated with capsule or with tablet at the same dose level were pooled together into a single treatment group for safety and efficacy analyses. The Full Analysis Set (FAS) consists of all patients who received ≥1 dose of the study drug. Efficacy analyses were performed on all patients in the FAS who had baseline and post-baseline tumor assessment data or who had discontinued prior to post-baseline tumor assessment, and excluded patients with tumors that were wild-type at EGFR T790 or who had received prior third-generation EGFR TKIs, unless otherwise noted.
Duration of response (DoR) and PFS were described using the Kaplan-Meier method.

[7] = tested on: EGFR mutant (L858R, ex19del and T790M) cancer models; settings: cited from earlier work
[8] = tested on: patients with advanced EGFR-mutant NSCLC harbouring activating EGFR L858R and/or ex19del mutations
[9] = tested on: patients with EGFR T790M+ NSCLC; settings: cited from earlier work; for hazard ratio for PFS: 95% CI
[10] = tested on: patients with EGFR mutant NSCLC; settings: cited from earlier work
[11] = Brain metastases absent at baseline, 14 evaluable patients, preliminary data
[12] = Brain metastases present at baseline, 10 evaluable patients, preliminary data

## C#Cc1cccc(Nc2ncnc3cc(OCCOC)c(OCCOC)cc23)c1 [erlotinib]
[1]
  ILD occurrence: 1.1%
[2]
  PFS obtained following treatment: 9.7 months
[3]
  median PFS as assessed by the investigator: 9.7 months

## COc1cc2ncnc(Nc3ccc(F)c(Cl)c3)c2cc1OCCCN1CCOCC1 [gefitinib]
[2]
  PFS obtained following treatment: 9.5 months
[4]
  patients who stopped therapy due to an adverse drug reaction: Approximately 3%
  patients with a severe adverse drug reaction (grade 3 or 4): Approximately 8%

## Cc1cc(C(=O)Nc2nc3cccc(Cl)c3n2[C@@H]2CCCCN(C(=O)/C=C/CN(C)C)C2)ccn1 [nazartinib, (R,E)-N-(7-chloro-1-(1-(4-(dimethylamino)but-2-enoyl)azepan-3-yl)-1H-benzo [d]imidazol-2-yl)-2-methylisonicotinamide]
[5]
  distribution to the brain: minimal
[6]; 75 mg QD, N = 12
  Among patients who progressed: Both A and B (A: progression in brain, B: outside of brain, at first PD): 1 patients
  Among patients who progressed: Only A, not B (A: progression in brain, B: outside of brain, at first PD): 1 patients
[6]; 100 mg QD, N = 34
  Among patients with baseline brain metastasis who progressed: Both A and B (A: progression in brain, B: outside of brain, at first PD): 2 patients
  Among patients with baseline brain metastasis who progressed: Only A, not B (A: progression in brain, B: outside of brain, at first PD): 1 patients
  Best response of brain non-target lesions: Absent/normalized: 1 patients
[6]; 150 mg QD dose level
  ORR: 46%
[6]; 150 mg QD, N = 68
  Best response of brain non-target lesions: Absent/normalized: 3 patients
[6]; 200 mg QD, N = 8
  Among patients who progressed: Only A, not B (A: progression in brain, B: outside of brain, at first PD): 1 patients
  Among patients who progressed: Only B, not A (A: progression in brain, B: outside of brain, at first PD): 6 patients
[6]; 225 mg QD
  HBV reactivation leading to hepatic failure and death: one
[6]; 225 mg QD, N = 24
  Among patients who progressed: Only B, not A (A: progression in brain, B: outside of brain, at first PD): 16 patients
  Among patients with baseline brain metastasis who progressed: Only A, not B (A: progression in brain, B: outside of brain, at first PD): 1 patients
  Among patients with baseline brain metastasis who progressed: Only B, not A (A: progression in brain, B: outside of brain, at first PD): 6 patients
  Best response of brain non-target lesions: Absent/normalized: 3 patients
[6]; 162 evaluable patients with EGFR T790M-positive tumors naïve to third-generation EGFR TKIs, 95% CI: 43-59
  best overall response rate across doses: 51%
[6]; All patients, N = 162
  Among patients with baseline brain metastasis who progressed: Only A, not B (A: progression in brain, B: outside of brain, at first PD): five
  Best response of brain non-target lesions: Absent/normalized: 16% and 14%
[6]; across doses, EGFR T790M-positive, third-generation EGFR TKI naïve
  median duration of response: 11.0 months
[6]; across doses, 95% CI: 7.3-11.1
  median progression-free survival (PFS): 9.1 months
[6]; human, in vivo
  most common adverse events: rash, diarrhea, and pruritus
[6]; patients with EGFR T790M-positive tumors naïve to third-generation EGFR TKIs
  overall disease control rate (DCR): 89% and 87%
[6]; person, EGFR ex19del/T790M NSCLC, numerous small brain metastases at baseline
  brain metastases at first post-baseline evaluation (single case): no longer radiologically detectable
[6]; person, EGFR ex19del/T790M NSCLC, numerous small brain metastases at baseline, no prior local therapy to the brain
  duration of overall partial response (single case): 11.1 months
[7]; several xenograft models
  anti-tumor efficacy: Dose-dependent anti-tumor efficacy
[7]; xenograft models, efficacious doses
  tolerability, body weight: well tolerated with no body weight loss
[8]; 150 mg once daily
  6-month duration of response rate (DoR): 91%
  6-month overall survival rate: 95%
  6-month progression-free survival rate: 83%
  disease control rate: 93%
[8]; 150 mg once daily, 45 patients
  patients who achieved complete response: One
[8]; 150 mg once daily, 45 patients, 95% CI 49%-78%
  ORR per RECIST v1.1 by BICR: 64%
[8]; 150 mg once daily, of 45 patients
  patients who demonstrated a response: Twenty-nine
[8]; [11]
  Best overall response per BIRC: Progressive disease (PD): 0 patients
  Disease control rate (CR + PR + SD + NCRNPD) per BIRC: 14 patients
  Overall response rate per BIRC: 11 patients
[8]; [12]
  Best overall response per BIRC: Complete response (CR): 0 patients
  Best overall response per BIRC: Non-CR/non-PD (NCRNPD): 0 patients
  Disease control rate (CR + PR + SD + NCRNPD) per BIRC: 9 patients
  Overall response rate per BIRC: 5 patients
[8]; of the 27 patients without baseline brain metastasis
  patients who developed a new brain metastasis on study: One
[8]; of the 29 responding patients, cutoff 22 Mar. 2018
  responses ongoing at data cutoff: 27 patients
[8]; person, Cycle 5 Day 1 (study day 113), no prior treatment for brain metastases
  brain post-baseline scan versus baseline by BIRC (single case): complete normalization of brain lesion

## C=CC(=O)Nc1cc(Nc2nccc(-c3cn(C)c4ccccc34)n2)c(OC)cc1N(C)CCN(C)C [osimertinib]
[9]; AURA3
  median duration of response: 9.7 month
[9]; osimertinib arm of AURA3
  median PFS: 10.1 months
[9]; overall population, 0.23-0.41
  hazard ratio for PFS: 0.30
[9]; patients with CNS metastases, 0.21-0.49
  hazard ratio for PFS: 0.32
[2]
  PFS obtained following treatment: 10.2 months
[10]; FLAURA first-line
  investigator reported median progression-free survival: 18.9 months
  median duration of response: 17.2 months
  objective response rate (ORR): 80%
[10]; any cause
  adverse event: diarrhea: 58%
  adverse event: dry skin: 36%
  adverse event: rash or acne: 58%
[10]; in vivo
  AEs of grade 3 or higher: 34%
[10]; interim analysis
  survival rate at 18 months: 83%
[10]; osimertinib vs standard EGFR-TKIs, 95% CI 0.37 to 0.57, P<0.001
  HR for disease progression or death: 0.46
[10]; osimertinib vs standard EGFR-TKIs, 95% CI, 0.45 to 0.88, P=0.007
  hazard ratio for death: 0.63
[10]; osimertinib vs standard EGFR-TKIs, 95% CI, 0.85 to 1.90, P=0.24
  odds ratio for ORR: 1.27
